PubChem BioAssay (NCI)
Values joined by “and” are separate entries in the source; they are usually repeats but may differ in a detail not shown here. Identical values can stand only once.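 1) Cells in 96-well plates. 2) Compound, 48 h, 5 concentrations. 3) Linear interpolation between surrounding doses. 4) Unreached endpoint = highest concentration. GI50: concentration for 50% inhibition of growth. TGI is the concentration that stops growth completely.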

Experiments:
Assay in all cases: NCI tumour cell line growth inhibition, 48 h
U251 CNS = test system: U251 CNS
PC-3 prostate = test system: PC-3 prostate
NCI/ADR-RES ovarian = test system: NCI/ADR-RES ovarian
HCC-2998 colon = test system: HCC-2998 colon
SF-268 CNS = test system: SF-268 CNS
ACHN renal = test system: ACHN renal
HOP-92 NSCLC = test system: HOP-92 NSCLC
T-47D breast = test system: T-47D breast
SF-539 CNS = test system: SF-539 CNS
786-0 renal = test system: 786-0 renal

SMILES | GI50 (U251 CNS) | TGI (U251 CNS) | TGI (PC-3 prostate) [µM] | TGI (NCI/ADR-RES ovarian) [µM] | TGI (HCC-2998 colon) | GI50 (SF-268 CNS) | TGI (SF-268 CNS) | GI50 (ACHN renal) | TGI (ACHN renal) | GI50 (HOP-92 NSCLC) | TGI (HOP-92 NSCLC) | TGI (T-47D breast) [µM] | GI50 (SF-539 CNS) | TGI (SF-539 CNS) | TGI (786-0 renal) | GI50 (PC-3 prostate) [µM] | GI50 (NCI/ADR-RES ovarian) [nM] | GI50 (HCC-2998 colon) [µM] | GI50 (T-47D breast) [nM] | GI50 (786-0 renal) [nM]
O=C1C(Br)=C(Br)C(=O)c2ccccc21 | 17500 nM and 2160 nM | 31.3 µM and 4.68 µM | 31.7 | 66.8 | 46.3 µM and 34.5 µM | 23300 nM and 3270 nM | 57.7 µM and 12.9 µM | 15.2 µM and 5.76 µM | 28.4 µM and 14.2 µM | 13400 nM and 1730 nM | 27 µM and 4.59 µM | 12.5 | 19400 nM and 2820 nM | 36 µM and 10.6 µM | 32.3 µM and 23.5 µM |  |  |  |  | 
COc1ccc2c(c1)C(=O)c1c-2c(N2CCN(C(=O)CNCCN(C)C)CC2)nc2ccccc12 | 2190 nM | 4.68 µM | 15.1 | 19.9 | 2.98 µM | 2280 nM | 6 µM | 4.65 µM | 17.4 µM | 1570 nM | 4.15 µM | 3.07 | 1600 nM | 3.03 µM | 3.09 µM | 3.48 | 4280 | 1.37 | 1380 | 1480
CN(C)c1ccc(Nc2c3ccccc3nc3cc(NC(=O)CCN4CCCC4)ccc23)cc1 | 227 nM | 1.58 µM | 2.17 | 12.9 | 2.26 µM | 473 nM | 1.88 µM | 0.321 µM | 1.12 µM | 379 nM | 2.14 µM | 2.43 | 650 nM | 1.92 µM | 1.38 µM | 0.577 | 2910 | 0.627 | 455 | 343
CCOC(=O)c1ccc(N(C=O)CCC(=O)CCl)cc1 | 342 nM | 10.8 µM | 14.8 | 19.4 | 1.54 µM | 411 nM | 4.95 µM | 0.432 µM | 1.81 µM | 64 nM | 0.794 µM | 3.45 | 249 nM | 0.778 µM | 4.08 µM | 0.401 | 393 | 0.372 | 1160 | 333
O=C(c1nn(-c2ccc(Cl)cc2)cc1O)n1nc(C(F)(F)F)cc1-c1ccccc1 | 2650 nM | > 100 µM | > 100 | > 35.9 | > 100 µM | 1800 nM | > 100 µM | 2.08 µM | > 100 µM | 1670 nM | > 21.4 µM | > 100 | 2700 nM | > 100 µM | > 60.8 µM | 13.9 | 2090 | 9.4 | 4010 | 6390
Cc1ccc(-c2cc(-c3ccc(C)cc3)nc(N3CCN(CCNc4ccnc5cc(Cl)ccc45)CC3)n2)cc1 | 1430 nM | 5.39 µM | 30.9 | 11.1 | 16.2 µM | 4880 nM | 21.9 µM | 6.18 µM | 14.5 µM | 963 nM | 4.25 µM | 17.9 | 1680 nM | 5.84 µM | 6.95 µM | 3.14 | 2530 | 4.82 | 3210 | 1810
CCCCCCCCCCC[C@@H](C[C@H]1OC(=O)[C@H]1CCCCCC)OC(=O)[C@@H](CC(C)C)NC=O | 2830 nM | 17.2 µM | 22.8 | 15.2 | 27.3 µM | 2310 nM | 21.9 µM | 8.63 µM | > 100 µM | 1550 nM | 16.1 µM | > 100 | 5480 nM | 31 µM | 18.7 µM | 2.78 | 2860 | 5.31 | 13300 | 2420
O=C(Cc1csc2nc(-c3ccc(Br)cc3)cn12)N/N=C/c1ccc(Cl)cc1Cl | 20600 nM | 44.3 µM | > 100 | 52.3 | 44.8 µM | > 100000 nM | > 100 µM | 22.6 µM | 53.6 µM | 28200 nM | > 100 µM | > 100 | 27200 nM | 63.8 µM | 73.4 µM | 30.2 | 17200 | 20 | > 100000 | 25800
COc1ccc(/C=N\NC(=O)c2ccc3nc(-c4ccc(Cl)cc4)[nH]c3c2)cc1 | 2430 nM | 5.22 µM | 3.76 | > 100 | 6.44 µM | 2090 nM | 5.1 µM | 2 µM | 5.04 µM | 1520 nM | 4.11 µM | 4.83 | 1730 nM | 3.46 µM | 3.67 µM | 1.66 | 7810 | 2.57 | 1940 | 1930
COc1cc(C(=O)O/N=C(\N)Cc2cccc3ccccc23)cc(OC)c1OC | 12000 nM | 25.8 µM | 20.6 | 59.2 | 34.3 µM | 7550 nM | 22.9 µM | 7.11 µM | 20.3 µM | 4590 nM | 17 µM | 12.5 | 2970 nM | 10.4 µM | 26.7 µM | 6.02 | 7020 | 17.2 | 2950 | 13500
COc1cnc2c(c1)C(=O)c1c-2n(CCCNCCN2CCOCC2)c(=O)c2cc([N+](=O)[O-])ccc12 | 78.3 nM | 1.1 µM | 13 | 1.45 | 1.54 µM | 81.8 nM | 13.3 µM | 0.0365 µM | 0.201 µM | 866 nM | 22.8 µM | 18.1 | 311 nM | 1.32 µM | 0.765 µM | 0.568 | 125 | 0.303 | 110 | 224
CC(C)=CC(=O)N[C@@H]1CC2CCC3C(CC[C@@]4(C)C3CC[C@@H]4C(C)N(C)C)[C@@]2(C)C[C@@H]1O (stereo not given in full) | 3970 nM | 22 µM | 32.7 | > 72.6 | 16.8 µM | 2710 nM | 12.2 µM | 6.36 µM | 32.6 µM | 2370 nM | 24.2 µM | 31.2 | 1590 nM | 3.36 µM | 14.2 µM | 3.73 | 7050 | 5.44 | 1940 | 4310
